The results in this text go back to patent US9669028B2, “Substituted 5-(pyrazin-2-yl)-1H-pyrazolo [3, 4-B] pyridine and pyrazolo [3, 4-B] pyridine derivatives as protein kinase inhibitors” (Arrien Pharmaceuticals LLC, priority 2011, dated 2017).

The target of one data set is LRRK2 (Homo sapiens (Human), UniProt Q5S007). The data set can be described thus: LRRK2 Kinase Assay. Conditions: 10 μM ATP. It is filed as biochemical. As to the method:
(§1) Briefly, specific kinase/substrate pairs along with required cofactors were prepared in reaction buffer; 20 mM Hepes (pH 7.5), 10 mM MgCl2, 1 mM EGTA, 0.02% Brij35, 0.02 mg/ml BSA, 0.1 mM Na3VO4, 2 mM DTT, 1% DMSO. Compounds were delivered into the reaction, followed ˜20 min later by addition of a mixture of ATP (Sigma) and 33P ATP (PerkinElmer) to a final concentration of 10 μM. […] IC50 values and curve fits were obtained using Prism (GraphPad Software). Kinome tree representations were prepared using Kinome Mapper (http://www.reactionbiology.com/apps/kinome/mapper/Launch Kinome.htm).
For the wild type LRRK the 2×LRRK2/ERM (LRRKtide) mixture was prepared in 50 mM Tris pH 8.5, 0.01% BRIJ-35, 10 mM MgCl2, 1 mM EGTA, 0.02% NaN3. […] After 1 hour Kinase Reaction incubation, 5 μL of Detection Mix was added.

Another data set concerns the target LRRK2 G2019S (Homo sapiens (Human), UniProt Q5S007, G2019S). The data set can be described thus: LRRK2 G2019S Kinase Assay. Particulars: 10 μM ATP. It is filed as biochemical. As to the method:
Procedure: Enzyme was incubated with substrate peptide in reaction buffer in the presence and absence of test compounds or Staurosporine. All additions were done on ice, followed by the addition of ATP mix. Wells were uniformly mixed using an Eppendorff plate shaker and incubated at 30° C. for 20 min, and stopped by the addition of 5 μl of 3% phosphoric acid. Volume was increased to 100 μl by adding 0.8% phosphoric acid which was then transferred to PC filter mats (Millipore), pre-equilibrated with 70% ethanol and water. Plates were washed thrice with 100 μl 0.8% phosphoric acid and dried for an hour at 60° C. 100 μl scintillation fluid was added into each well and reading taken in Perkin Elmer TOPCOUNT beta counter. […] A validation EC50 curve was generated by plotting CPM for each Staurosporine concentration on y-axis against the Log concentration of Staurosporine (nM) on the x-axis followed by a best fit curve through the points.
After 1 hour Kinase Reaction incubation, 5 μL of Detection Mix was added.

For a further data set, the target named is DYRK1A (Homo sapiens (Human), UniProt Q13627). Description: In vitro DYRK1A inhibition assay. It is filed as biochemical. As to the method: as §1
The 2×DYRK1A/Ser/Thr 18 mixture was prepared in 50 mM HEPES pH 7.5, 0.01% BRIJ-35, 10 mM MgCl2, 1 mM EGTA.

In data set [1] the test system is 299 protein kinases+17 additional preview kinases. Description: Protein Kinase Selectivity Profiler. It is filed as biochemical, human. Conditions: 10 μM ATP; for % enzyme inhibition relative to DMSO controls: LRRK2, LRRK2 G2019S, CHK1, DYRK1A, FLT3, MLK1, TNIK, TRKA, single dose 0.5 μM, 1 μM. As to the method: In vitro profiling of the 317 member kinase panel was performed at Reaction Biology Corporation using the “HotSpot” assay platform. Briefly, specific kinase/substrate pairs along with required cofactors were prepared in reaction buffer; 20 mM Hepes (pH 7.5), 10 mM MgCl2, 1 mM EGTA, 0.02% Brij35, 0.02 mg/ml BSA, 0.1 mM Na3VO4, 2 mM DTT, 1% DMSO. Compounds were delivered into the reaction, followed ˜20 min later by addition of a mixture of ATP (Sigma) and 33P ATP (PerkinElmer) to a final concentration of 10 μM. Reactions were carried out at 25° C. for 120 min, followed by spotting of the reactions onto P81 ion exchange filter paper (Whatman). Unbound phosphate was removed by extensive washing of filters in 0.75% phosphoric acid. […] IC50 values and curve fits were obtained using Prism (GraphPad Software). Kinome tree representations were prepared using Kinome Mapper (http://www.reactionbiology.com/apps/kinome/mapper/Launch Kinome.htm). Specifically for the LRRK2 enzyme the substrate LRRKtide (gene bank and protein access numbers NP_940980.2 Q5S007) and clone aa 970-2527 expressed in baculovirus in insect cells with N-terminal GST tag was employed in the study protocol. In the case of DYRK1A (SEQ ID NO 16) the substrate casein (gene bank and protein access numbers NP_001387 Q13627) full length clone expressed in insect with n-terminal tag was used.
A control compound was tested in 10-dose IC50 mode with 3-fold serial dilution starting at 20 μM. Reactions were carried out at 10 μM ATP. Data pages include raw data, % Enzyme activity (relative to DMSO controls), and curve fits.

Data set [2] concerns MPTP-injected C57 black mice. Description: MPTP mouse model of Parkinson's disease, oral pre-treatment. Conditions: for protection against MPTP-induced TH cell loss and dopaminergic degeneration in substantia nigra and striatum: 10 mg/kg and 30 mg/kg oral; for locomotor activities in MPTP-injected mice / striatal dopamine levels in MPTP treated mice: orally administered, pre-treatment. The data set is classed as in vivo.

Data set [3] has as its system MPTP-injected C57 black mice. The data set can be described thus: MPTP mouse model, intravenous pre-treatment. It is filed as in vivo. Conditions: 5 mg/kg i.v. As to the method:
24 C57 black mice (C57/bl6, 6-8 week old, and 25-30 g) were purchased from Charles River Laboratories, Ohio. […] Prior to treatment animals were pre-trained on rotarod for at least 3 minutes every day for three successive days. Test compound (5 mg/kg) was administered intravenously to group C animals, 24 h prior to MPTP-injection and continued daily for additional 11 days. MPTP was dissolved in PBS and injected intraperitoneally (i.p.) at doses of 25 mg/kg, once daily for 5 days to group B and C animals. Group A animals were injected with saline (i.p.) to be used as controls. Urine and Faeces were collected on Day 8, behavioural studies were performed on Day 9 (4-days post-MPTP). On day 12 (7 days post-MPTP), 4 animals/group were sacrificed, different brains regions including striatum and substantia nigra were dissected. Left striatum were used for neurochemical analysis. Other 4 animals/group were perfused and used for TH immunohistological studies.

The subject of data set [4] is MPTP-injected C57 black mice. The data set can be described thus: MPTP mouse model, post-treatment study. The data set is classed as in vivo. Particulars: post-administration, oral and i.v routes. As to the method: 32 C57 black mice (C57/bl6, 6-8 week old, 25-30 g) were purchased from Charles River Laboratories, Ohio. […] All animals were housed in Laboratory of Animal Resources vivarium at Iowa State University under standard conditions: constant temperature (22±1° C.), humidity (relative, 30%), and a 12-h light/dark cycle. Mice were allowed free access to food and water. Use of the animals and protocol procedures were approved and supervised by the Committee on Animal Care at Iowa State University (Ames, Iowa). Test compounds were dissolved in PBS for this study. Prior to treatment animals were pre-trained on rotarod for at least 3 minutes every day for three successive days. Group A animals were injected with saline (i.p.) to be used as controls. MPTP was dissolved in PBS and injected intraperitoneally (i.p.) at doses of 25 mg/kg, once daily for 5 days to group B, C and D animals. On day 4, prior to 4th MPTP injection, group C animals received test compounds (30 mg/kg, oral) daily for eight days. Similarly, on day 4, prior to 4th MPTP injection, group D animals received test compounds (5 mg/kg, i.v) daily for eight days. On day 9 (Post-test compounds administration) or day 12 (7 days post-MPTP), 4 animals/group were sacrificed, different brain regions including striatum and substantia nigra were dissected. Left striatum were used for neurochemical analysis. Other 4 animals/group were perfused and used for TH immunohistological studies.

A short description of another data set: in vivo. Conditions: male, Sprague Dawley, rat. The source says:
To investigate the pharmacokinetic profiles of test compound following intravenous bolus administration and oral gavage in male Sprague Dawley rats.

pIC50: −log10 of the molar value.

Sequence of LRRK2 G2019S (Q5S007 970-2527 G2019S): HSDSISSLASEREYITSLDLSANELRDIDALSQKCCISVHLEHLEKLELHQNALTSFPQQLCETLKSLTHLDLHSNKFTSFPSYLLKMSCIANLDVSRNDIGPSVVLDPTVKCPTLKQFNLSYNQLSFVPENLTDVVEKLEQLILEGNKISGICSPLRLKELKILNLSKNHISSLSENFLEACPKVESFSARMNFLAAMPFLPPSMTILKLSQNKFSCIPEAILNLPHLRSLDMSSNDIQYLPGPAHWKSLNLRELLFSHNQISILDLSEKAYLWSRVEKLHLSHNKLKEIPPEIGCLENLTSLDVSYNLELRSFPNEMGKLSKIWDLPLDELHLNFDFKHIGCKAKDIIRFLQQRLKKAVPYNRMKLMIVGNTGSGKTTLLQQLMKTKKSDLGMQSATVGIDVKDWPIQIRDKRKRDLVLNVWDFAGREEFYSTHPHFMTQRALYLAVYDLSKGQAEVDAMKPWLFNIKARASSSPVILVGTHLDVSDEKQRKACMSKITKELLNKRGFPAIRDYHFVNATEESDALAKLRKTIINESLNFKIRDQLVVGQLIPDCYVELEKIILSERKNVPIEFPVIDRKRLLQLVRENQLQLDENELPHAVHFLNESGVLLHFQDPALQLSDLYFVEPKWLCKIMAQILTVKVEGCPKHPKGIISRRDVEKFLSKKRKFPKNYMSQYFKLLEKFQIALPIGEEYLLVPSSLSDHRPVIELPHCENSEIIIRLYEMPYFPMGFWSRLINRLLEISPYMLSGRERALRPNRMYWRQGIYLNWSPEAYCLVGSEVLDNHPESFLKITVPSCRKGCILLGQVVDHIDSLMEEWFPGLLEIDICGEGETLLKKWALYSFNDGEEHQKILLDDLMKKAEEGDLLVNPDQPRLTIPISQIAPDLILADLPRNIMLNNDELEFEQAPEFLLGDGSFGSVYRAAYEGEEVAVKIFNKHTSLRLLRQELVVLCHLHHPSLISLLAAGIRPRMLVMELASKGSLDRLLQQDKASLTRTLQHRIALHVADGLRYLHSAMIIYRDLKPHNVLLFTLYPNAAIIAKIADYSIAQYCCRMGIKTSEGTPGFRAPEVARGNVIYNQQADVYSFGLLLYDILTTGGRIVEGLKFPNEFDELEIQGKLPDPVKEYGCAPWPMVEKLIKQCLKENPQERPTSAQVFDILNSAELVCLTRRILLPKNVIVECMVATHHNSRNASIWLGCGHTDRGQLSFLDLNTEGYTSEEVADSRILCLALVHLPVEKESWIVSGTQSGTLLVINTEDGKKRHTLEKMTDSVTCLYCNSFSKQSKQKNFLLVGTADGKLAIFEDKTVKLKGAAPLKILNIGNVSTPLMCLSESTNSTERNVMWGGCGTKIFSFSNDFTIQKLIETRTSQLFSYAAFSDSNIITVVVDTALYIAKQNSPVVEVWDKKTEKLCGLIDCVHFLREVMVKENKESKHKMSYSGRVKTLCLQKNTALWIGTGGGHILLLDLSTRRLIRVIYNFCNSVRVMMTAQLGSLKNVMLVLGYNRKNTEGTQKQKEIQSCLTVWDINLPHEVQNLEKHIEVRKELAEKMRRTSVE
Sequence of LRRK2 (Q5S007 970-2527): as the sequence (Q5S007 970-2527 G2019S) above, with S1050G counted along it

The pIC50 is the IC50 on a negative log10 scale, so that one unit is a factor of ten. Low readings indicate a high IC50, high ones a low IC50. As usually defined, the AUC(0-t) is exposure summed from dosing to a finite time, without extrapolation to infinity. Read a low AUC(0-t) as low exposure. As a reminder, the Vd is a proportionality between amount in the body and measured concentration, not a real space. A lower Vd goes with confinement near the circulation. As a reminder, the clearance is the volume of plasma or blood freed of the substance per unit of time. Lower therefore signals inefficient removal. As usually defined, the half-life is how long it takes for the measured level to halve. A higher half-life goes with slow loss. As usually defined, the Cmax is the highest concentration seen after dosing. By Tmax is commonly meant the time at which the peak concentration occurs. At LRRK2, `Cc1n[nH]c2ncc(-c3cncc(N4CCOCC4)n3)cc12` [Compound 105, 4-(6-(3-methyl-1H-pyrazolo[3,4-b]pyridin-5-yl)pyrazin-2-yl)morpholine] showed a negative-log IC50 (pIC50) above 6.30. Besides, the negative-log IC50 (pIC50) at LRRK2 G2019S is above 6.30. On DYRK1A, this compound gave a negative logarithm of the IC50 (pIC50) above 6.30. For the same compound, the “% enzyme inhibition relative to DMSO controls” value in data set [1] is given as 5-15%. Besides, in data set [2], the “protection against MPTP-induced TH cell loss and dopaminergic degeneration in substantia nigra and striatum” value is reported as “dose-dependent protection”; the “locomotor activities in MPTP-injected mice” value (shortened to “locomotor activities”) is recorded as “Improve Locomotor Activities”; the “striatal dopamine levels in MPTP treated mice” value (from here on “striatal dopamine levels”) is given as “Restore Striatal Dopamine Levels”. Moreover, in data set [3], the “protection against MPTP-induced TH neuronal loss in the substantia nigra and in the striatum” value is listed as “Protect Against MPTP-Induced TH Neuronal Loss”. For the same compound, in data set [4], the “protection against MPTP-induced histological deficits” value was “significantly protected”, the “protection against MPTP-induced motor-deficits” value was “significantly protected” and the “protection against MPTP-induced neurochemical deficits” value is listed as “not against neurochemical deficits”. Besides, in “in vivo” (iv, 5 mg/kg), the AUC(0-t) is 1020 ng·h/mL, the distribution volume (Vd) amounted to 15.2 L/kg, the clearance is 123 mL/min/kg and the half-life is 2.26 h. In addition, in the data set “in vivo” (po, 30 mg/kg), the AUC(0-t) was determined as 1040 ng·h/mL, the Cmax stood at 133 ng/mL, the F was 24% and the time to peak (Tmax) amounted to 6.7 h.
The compound `c1ccc2c(c1)CCN2c1cncc(-c2cnc3[nH]ccc3c2)n1` [Compound 134, 5-(6-(indolin-1-yl)pyrazin-2-yl)-1H-pyrrolo[2,3-b]pyridine] showed a negative logarithm of the IC50 (pIC50) against LRRK2 above 6.30. The pIC50 on LRRK2 G2019S is above 6.30. Also, at DYRK1A, the negative logarithm of the IC50 (pIC50) was above 6.30. Further, the “% enzyme inhibition relative to DMSO controls” value in data set [1] is 5-15%. Also, in data set [2], the “protection against MPTP-induced TH cell loss and dopaminergic degeneration in substantia nigra and striatum” value is reported as “dose-dependent protection”; the “locomotor activities” value is on record as “Improve Locomotor Activities”; the “striatal dopamine levels” value is recorded as “Restore Striatal Dopamine Levels”. Further, the “protection against MPTP-induced TH neuronal loss in the substantia nigra and in the striatum” value in data set [3] is on record as “Protect Against MPTP-Induced TH Neuronal Loss”. Moreover, in the data set “in vivo” (iv, 5 mg/kg), the AUC(0-t) turned out to be 1020 ng·h/mL, the volume of distribution (Vd) is 15.2 L/kg, the clearance came out at 123 mL/min/kg and the half-life is 2.26 h. For the same compound, in “in vivo” (po, 30 mg/kg), the AUC(0-t) came to 1040 ng·h/mL, the peak level (Cmax) was 133 ng/mL, the F worked out at 24% and the Tmax turned out to be 6.7 h.
Consider `Cc1n[nH]c2ncc(-c3cncc(N(C)CC4CCOCC4)n3)cc12` [Compound 71, N-methyl-6-(3-methyl-1H-pyrazolo[3,4-b]pyridin-5-yl)-N-((tetrahydro-2H-pyran-4-yl)methyl)pyrazin-2-amine], for which the pIC50 against LRRK2 was above 6.30. For the same compound, on LRRK2 G2019S, the negative logarithm of the IC50 (pIC50) is above 6.30. At DYRK1A, this compound showed a negative logarithm of the IC50 (pIC50) above 6.30. In addition, the “activity against kinases in broader scope, relative to DMSO control” value in data set [1] (ABL1 T315I, ALK2, ARK5, Aurora A/B/C, BRAF, C-KIT, CLK1-4, CSF1R, DYRK1A-4, FLT3, GSK3β, JAK1-3, KDR, LCK ... TRKA-C, single dose) was 5-15%. Moreover, in data set [2], the “protection against MPTP-induced TH cell loss and dopaminergic degeneration in substantia nigra and striatum” value is “dose-dependent protection”; the “locomotor activities” value is reported as “Improve Locomotor Activities”; the “striatal dopamine levels” value is on record as “Restore Striatal Dopamine Levels”. In addition, in data set [3], the “protection against MPTP-induced TH neuronal loss in the substantia nigra and in the striatum” value was “Protect Against MPTP-Induced TH Neuronal Loss”. Also, in the data set “in vivo” (iv, 5 mg/kg), the AUC(0-t) was 1020 ng·h/mL, the distribution volume (Vd) worked out at 15.2 L/kg, the clearance was found to be 123 mL/min/kg and the half-life was 2.26 h. Moreover, in “in vivo” (po, 30 mg/kg), the AUC(0-t) was 1040 ng·h/mL, the concentration peaked (Cmax) at 133 ng/mL, the F was determined as 24% and the time of peak concentration (Tmax) worked out at 6.7 h.
As to `COc1ccccc1-c1n[nH]c2ncc(-c3ccoc3)cc12` [Compound 184, 5-(furan-3-yl)-3-(2-methoxyphenyl)-1H-pyrazolo[3,4-b]pyridine], the negative logarithm of the IC50 (pIC50) at LRRK2, against LRRK2 G2019S and on DYRK1A was above 6.30 each time.
For `Cc1n[nH]c2ncc(NC3CCCN(Cc4ccc(F)cc4)C3)cc12` (stereo not drawn) [Compound 22, N-(1-(4-fluorobenzyl)piperidine-3-yl)-3-methyl-1H-pyrazolo[3,4-b]pyridine-5-amine], the pIC50 on LRRK2, against LRRK2 G2019S and at DYRK1A was below 6.30 each time.
For `CN1CCN(c2cncc(-c3cnc4[nH]ccc4c3)n2)CC1` [Compound 125, 5-(6-(4-methylpiperazin-1-yl)pyrazin-2-yl)-1H-pyrrolo[2,3-b]pyridine], the pIC50 against LRRK2, against LRRK2 G2019S and against DYRK1A was above 6.30 throughout.
`Cc1n[nH]c2ncc(NC3CCCN(Cc4ccc(Cl)c(Cl)c4)C3)cc12` (stereo not drawn) [Compound 28, N-(1-(3,4-Chlorobenzyl)piperidin-3-yl)-3-methyl-1H-pyrazolo[3,4-b]pyridid-5-amine]: the pIC50 on LRRK2, against LRRK2 G2019S and against DYRK1A was below 6.30 each time.
